Assay [1] deals with CD4+ T-cells. In words: Immunostimulation assay with anti-CD3/28 stimulated T-cells, CD69 expression by flow cytometry. Type of assay: cell-based, human. How it is done: (§1) Selection of potent compounds based on structure activity relation (SAR) using human, anti-CD3/28 stimulated T-cells. Enhanced activation of stimulated T-cells is measured by CD69 expression by flowcytometry.
(§2) White blood cell enriched buffy coats were ordered from the Austrian red cross, diluted with PBS to a total volume of 480 ml, 30 ml transferred to 50ml falcons and 11 ml lymphoprep added. Cell suspensions were centrifuged for 20 min at 2200 rpm and the PBMC containing layer transferred, three times washed with PBS and counted.
(§3) 10^7 PBMCs were magnetically labeled with CD4 and CD8 microbeads according to manufacturer's instructions and separated using autoMACS device. For dose response experiments with purified CD4+CD8+ T-cells 80000 cells were seeded per 96-well flat bottom cell culture dish.
(§4) 10 mM compounds of the invention stocks were further diluted using DMSO and equal amounts transferred to T-cell containing 96-wells. Final concentrations tested were: 30 µM, 10 µM, 3 µM, 1 µM, 0.3 µM, 0.1 µM, 0.03 µM, 0.01 µM, 0.003 µM and 0.001 µM.
(§5) For the stimulation assays 80.000 purified CD4+ and CD8+ T-cells were seeded per 96-well and incubated with 1 µg/ml anti-CD3, 1 µg/ml anti-CD28 and compounds of the invention ranging from 0.001 µM to 30 µM. DMSO only wells served as control to determine minimal T-cell activation upon stimulation and CD3/28 coupled Dynabeads were used to determine the maximal activation of T-cells. Cells were cultured for 16 hours in a humidified incubator at 37 °C and 5 % CO2.
(§6) T-cells were stained for surface antigens (anti-CD4 and anti-CD8) and cell activation markers (anti-CD25 and anti-CD69). Additionally, a fixable viability dye was used to stain viable cells. Staining was performed for 15 minutes and cells analyzed using a Fortessa flow cytometer and FlowJo Software. EC50s were calculated using GraphPad Prism® and a variable slope model (agonist vs. response - variable slope).
Background: In flow cytometry, cells or beads pass a laser one at a time.

The subject of assay [2] is CD8+ T-cells. The assay is described as above. Type of assay: cell-based, human. How it is done:
as §1, §2, §3, §4, §5, §6

Setting [3] is: T-cell, purified human CD4+ and CD8+ T-cells, 1 µg/ml anti-CD3, 1 µg/ml anti-CD28, 16 hours, surface FACS, read-out: EC50 CD4+.
The mark [4] stands for this setting: T-cell, purified human CD4+ and CD8+ T-cells, 1 µg/ml anti-CD3, 1 µg/ml anti-CD28, 16 hours, surface FACS, read-out: EC50 CD8+.

Like-named read-outs stand apart in the source and are kept apart here. A value given as a limit tells only on which side of the number the result lay.

Usually EC50 stands for the midpoint of the concentration-response curve. On to `COc1cc(-c2nc3c(c(=O)[nH]c(=O)n3CC(C)O)n2C)ccc1OCc1ccccc1` (stereo not drawn) [Compound 16, 8-(4-(benzyloxy)-3-methoxyphenyl)-3-(2-hydroxypropyl)-7-methyl-3,7-dihydro-1H-purine-2,6-dione], for which the 50% effective concentration (EC50) lay in the range of 0.5 to 1 µM in assay [1] (setting [3]) and 1 to 5 µM in assay [2] (setting [4]).
Regarding `Cn1c(-c2ccc(OCc3ccc(C(F)F)cc3)c(F)c2)nc2c1c(=O)[nH]c(=O)n2CC(O)C(F)(F)F` (stereo not drawn) [Compound 18], the EC50 in assay [1] (16 h) is greater than 5 µM; in assay [2] (16 h), 1 to 5 µM.
In the case of `COc1cc(-c2nc3c(c(=O)[nH]c(=O)n3CC(O)C(F)F)n2C)ccc1OCc1ccc(C)cc1` (stereo not drawn) [Compound 19, 3-(3,3-difluoro-2-hydroxypropyl)-8-(3-methoxy-4-((4-methylbenzyl)oxy)phenyl)-7-methyl-3,7-dihydro-1H-purine-2,6-dione], the results for the concentration for a half-maximal effect (EC50) in assay [1] (setting [3]) and in assay [2] (setting [4]) were 0.5 to 1 µM and less than 0.1 µM, respectively.
`COc1cc(-c2nc3c(c(=O)[nH]c(=O)n3CC(C)(C)O)n2C)ccc1OCc1ccccc1` [Compound 52, 8-(4-(benzyloxy)-3-methoxyphenyl)-3-(2-hydroxy-2-methylpropyl)-7-methyl-3,7-dihydro-1H-purine-2,6-dione]: the EC50 in assay [1] (setting [3]) was 1 to 5 µM; in assay [2] (setting [4]), greater than 5 µM.
On the same counts, the results for `COc1cc(-c2nc3c(c(=O)[nH]c(=O)n3C[C@H](O)C(F)F)n2C)ccc1OCc1ccccc1` [Compound 53, (S)-8-(4-(benzyloxy)-3-methoxyphenyl)-3-(3,3-difluoro-2-hydroxypropyl)-7-methyl-3,7-dihydro-1H-purine-2,6-dione] are less than 0.1 µM and less than 0.1 µM.
For the compound `COCC(O)Cn1c(=O)[nH]c(=O)c2c1nc(-c1ccc(OCc3ccccc3)c(OC)c1)n2C` (stereo not drawn) [Compound 54, 8-(4-(benzyloxy)-3-methoxyphenyl)-3-(2-hydroxy-3-methoxypropyl)-7-methyl-3,7-dihydro-1H-purine-2,6-dione], the EC50 in assay [1] (setting [3]) and in assay [2] (setting [4]) was 1 to 5 µM each time.
Regarding `COc1cc(-c2nc3c(c(=O)[nH]c(=O)n3CC(O)CO)n2C)ccc1OCc1ccccc1` (stereo not drawn) [Compound 55, 8-(4-(benzyloxy)-3-methoxyphenyl)-3-(2,3-dihydroxypropyl)-7-methyl-3,7-dihydro-1H-purine-2,6-dione], the EC50 in assay [1] (setting [3]) and in assay [2] (setting [4]) was 1 to 5 µM in each case.
Turning to `COc1cc(-c2nc3c(c(=O)[nH]c(=O)n3CC(C)CO)n2C)ccc1OCc1ccccc1` (stereo not drawn) [Compound 56, 8-(4-(benzyloxy)-3-methoxyphenyl)-3-(3-hydroxy-2-methylpropyl)-7-methyl-3,7-dihydro-1H-purine-2,6-dione], the half-maximal effective concentration (EC50) in assay [1] (setting [3]) and in assay [2] (setting [4]) was 0.1 to 0.5 µM in each case.
With `COc1cc(-c2nc3c(c(=O)[nH]c(=O)n3CC(O)C(F)(F)F)n2C)ccc1OCc1ccccc1` (stereo not drawn) [Compound 57, 8-(4-(benzyloxy)-3-methoxyphenyl)-7-methyl-3-(3,3,3-trifluoro-2-hydroxypropyl)-3,7-dihydro-1H-purine-2,6-dione], the figures for the concentration giving a half-maximal response (EC50) in assay [1] (setting [3]) and in assay [2] (setting [4]) were 0.5 to 1 µM and 1 to 5 µM, respectively.
Consider `COc1cc(-c2nc3c(c(=O)[nH]c(=O)n3CC(O)CF)n2C)ccc1OCc1ccccc1` (stereo not drawn) [Compound 58, 8-(4-(benzyloxy)-3-methoxyphenyl)-3-(3-fluoro-2-hydroxypropyl)-7-methyl-3,7-dihydro-1H-purine-2,6-dione], for which the half-maximal effective concentration (EC50) fell in the range of 0.5 to 1 µM in assay [1] (setting [3]) and 0.1 to 0.5 µM in assay [2] (setting [4]).
On the same counts, the results for `CCC(O)Cn1c(=O)[nH]c(=O)c2c1nc(-c1ccc(OCc3ccccc3)c(OC)c1)n2C` (stereo not drawn) [Compound 59, 8-(4-(benzyloxy)-3-methoxyphenyl)-3-(2-hydroxybutyl)-7-methyl-3,7-dihydro-1H-purine-2,6-dione] are 1 to 5 µM and 1 to 5 µM.
On to `COc1cc(-c2nc3c(c(=O)[nH]c(=O)n3C[C@@H](C)O)n2C)ccc1OCc1ccccc1` [Compound 60, (R)-8-(4-(benzyloxy)-3-methoxyphenyl)-3-(2-hydroxypropyl)-7-methyl-3,7-dihydro-1H-purine-2,6-dione], for which the 50% effective concentration (EC50) in assay [1] (setting [3]) and in assay [2] (setting [4]) was 1 to 5 µM in each case.
For `COc1cc(-c2nc3c(c(=O)[nH]c(=O)n3C[C@H](C)O)n2C)ccc1OCc1ccccc1` [Compound 61, (S)-8-(4-(benzyloxy)-3-methoxyphenyl)-3-(2-hydroxypropyl)-7-methyl-3,7-dihydro-1H-purine-2,6-dione], the EC50 in assay [1] (setting [3]) and in assay [2] (setting [4]) was 0.5 to 1 µM each time.
Take `Cn1c(-c2ccc(OCc3ccc(C(F)F)cc3)c(F)c2)nc2c1c(=O)[nH]c(=O)n2CC(O)C(F)F` (stereo not drawn) [Compound 62, 3-(3,3-difluoro-2-hydroxypropyl)-8-(4-((4-(difluoromethyl)benzyl)oxy)-3-fluorophenyl)-7-methyl-3,7-dihydro-1H-purine-2,6-dione]: the 50% effective concentration (EC50) in assay [1] (setting [3]) was in the range of 0.5 to 1 µM; in assay [2] (setting [4]), 0.1 to 0.5 µM.
On to `Cn1c(-c2ccc(OCc3ccc(C(F)F)cc3)c(F)c2)nc2c1c(=O)[nH]c(=O)n2CC(O)CF` (stereo not drawn) [Compound 63, 8-(4-((4-(difluoromethyl)benzyl)oxy)-3-fluorophenyl)-3-(3-fluoro-2-hydroxypropyl)-7-methyl-3,7-dihydro-1H-purine-2,6-dione], for which the EC50 in assay [1] (setting [3]) and in assay [2] (setting [4]) was 0.1 to 0.5 µM each time.
In the case of `Cn1c(-c2ccc(OCc3ccc(C(F)F)cc3)c(F)c2)nc2c1c(=O)[nH]c(=O)n2CC(O)C(F)(F)F` (stereo not drawn) [Compound 64, 8-(4-((4-(difluoromethyl)benzyl)oxy)-3-fluorophenyl)-7-methyl-3-(3,3,3-trifluoro-2-hydroxypropyl)-3,7-dihydro-1H-purine-2,6-dione], the concentration giving a half-maximal response (EC50) in assay [1] (setting [3]) is greater than 5 µM; in assay [2] (setting [4]), 1 to 5 µM.
Regarding `CC(O)Cn1c(=O)[nH]c(=O)c2c1nc(-c1ccc(OCc3ccc(C(F)F)cc3)c(F)c1)n2C` (stereo not drawn) [Compound 65, 8-(4-((4-(difluoromethyl)benzyl)oxy)-3-fluorophenyl)-3-(2-hydroxypropyl)-7-methyl-3,7-dihydro-1H-purine-2,6-dione], the EC50 in assay [1] (setting [3]) fell in the range of 0.5 to 1 µM; in assay [2] (setting [4]), 0.1 to 0.5 µM.
Regarding `COc1cc(-c2nc3c(c(=O)[nH]c(=O)n3CC(CO)C(F)F)n2C)ccc1OCc1ccc(C(F)F)cc1` (stereo not drawn) [Compound 66, 3-(3,3-difluoro-2-(hydroxymethyl)propyl)-8-(4-((4-(difluoromethyl)benzyl)oxy)-3-methoxyphenyl)-7-methyl-3,7-dihydro-1H-purine-2,6-dione], the 50% effective concentration (EC50) in assay [1] (setting [3]) and in assay [2] (setting [4]) was less than 0.1 µM throughout.
As to `Cc1ccc(COc2ccc(-c3nc4c(c(=O)[nH]c(=O)n4CC(CO)C(F)F)n3C)cc2F)cc1` (stereo not drawn) [Compound 67, 3-(3,3-difluoro-2-(hydroxymethyl)propyl)-8-(3-fluoro-4-((4-methylbenzyl)oxy)phenyl)-7-methyl-3,7-dihydro-1H-purine-2,6-dione], the results for the EC50 in assay [1] (setting [3]) and in assay [2] (setting [4]) were less than 0.1 µM and 0.1 to 0.5 µM, respectively.
Consider `COc1cc(-c2nc3c(c(=O)[nH]c(=O)n3CC(O)C(F)F)n2C)ccc1OCc1ccccc1` (stereo not drawn) [Compound 68, 8-(4-(benzyloxy)-3-methoxyphenyl)-3-(3,3-difluoro-2-hydroxypropyl)-7-methyl-3,7-dihydro-1H-purine-2,6-dione], for which the EC50 in assay [1] (setting [3]) and in assay [2] (setting [4]) was 0.1 to 0.5 µM each time.
Take `COc1cc(-c2nc3c(c(=O)[nH]c(=O)n3CC(O)CO)n2C)ccc1OCc1ccc(C(F)F)cc1` (stereo not drawn) [Compound 72, 8-(4-((4-(difluoromethyl)benzyl)oxy)-3-methoxyphenyl)-3-(2,3-dihydroxypropyl)-7-methyl-3,7-dihydro-1H-purine-2,6-dione]: the EC50 in assay [1] (setting [3]) and in assay [2] (setting [4]) was 1 to 5 µM in each case.
Turning to `COc1cc(-c2nc3c(c(=O)[nH]c(=O)n3CC(O)CF)n2C)ccc1OCc1ccc(C(F)F)cc1` (stereo not drawn) [Compound 73, 8-(4-((4-(difluoromethyl)benzyl)oxy)-3-methoxyphenyl)-3-(3-fluoro-2-hydroxypropyl)-7-methyl-3,7-dihydro-1H-purine-2,6-dione], the EC50 in assay [1] (setting [3]) and in assay [2] (setting [4]) was 0.5 to 1 µM throughout.
On to `COc1cc(-c2nc3c(c(=O)[nH]c(=O)n3CC(C)CO)n2C)ccc1OCc1ccc(C(F)F)cc1` (stereo not drawn) [Compound 74, 8-(4-((4-(difluoromethyl)benzyl)oxy)-3-methoxyphenyl)-3-(3-hydroxy-2-methylpropyl)-7-methyl-3,7-dihydro-1H-purine-2,6-dione], for which the EC50 in assay [1] (setting [3]) and in assay [2] (setting [4]) was 0.1 to 0.5 µM throughout.
Take `COc1cc(-c2nc3c(c(=O)[nH]c(=O)n3CC(O)C(F)(F)F)n2C)ccc1OCc1ccc(C(F)F)cc1` (stereo not drawn) [Compound 75, 8-(4-((4-(difluoromethyl)benzyl)oxy)-3-methoxyphenyl)-7-methyl-3-(3,3,3-trifluoro-2-hydroxypropyl)-3,7-dihydro-1H-purine-2,6-dione]: the half-maximal effective concentration (EC50) in assay [1] (setting [3]) and in assay [2] (setting [4]) was 0.1 to 0.5 µM throughout.

The values are drawn from patent EP4389749A1, “SUBSTITUTED 3,7-DIHYDRO-1H-PURINE-2,6-DIONES AND USE THEREOF” (invIOs GmbH, priority 2022, dated 2024).
